The assay has as its system GM1 production in Jurkat cells. As to the kind of experiment: cells. The settings on record: Homo sapiens, Jurkat, 72 h. It counts as cell-based.
For `COc1ccccc1-c1ccc2c(c1)CC(C)(C)C2NC(=O)O[C@@H]1CN2CCC1CC2` (stereo partly drawn) [Example 176, (S)-quinuclidin-3-yl (5-(2-methoxyphenyl)-2,2-dimethyl-2,3-dihydro-1H-inden-1-yl)carbamate], 27.6 nM corresponded to half-maximal inhibition (IC50).
Next, `CCOc1ccccc1-c1ccc2c(c1)CC(C)(C)C2NC(=O)O[C@@H]1CN2CCC1CC2` (stereo partly drawn) [Example 177, (S)-quinuclidin-3-yl (5-(2-ethoxyphenyl)-2,2-dimethyl-2,3-dihydro-1H-inden-1-yl)carbamate]: 22.9 nM; `CC1(C)Cc2cc(-c3cc(OC(F)(F)F)ccc3Cl)ccc2C1NC(=O)O[C@@H]1CN2CCC1CC2` (stereo partly drawn) [Example 178, (S)-quinuclidin-3-yl (5-(2-chloro-5-(trifluoromethoxy)phenyl)-2,2-dimethyl-2,3-dihydro-1H-inden-1-yl)carbamate]: 26.9 nM.
As for `COc1cc(F)ccc1-c1ccc2c(c1)CC(C)(C)C2NC(=O)O[C@@H]1CN2CCC1CC2` (stereo partly drawn) [Example 179, (S)-quinuclidin-3-yl (5-(4-fluoro-2-methoxyphenyl)-2,2-dimethyl-2,3-dihydro-1H-inden-1-yl)carbamate], 41 nM corresponded to half-maximal inhibition (IC50).
Take `COc1ccc(-c2ccc3c(c2)CC(C)(C)C3NC(=O)O[C@@H]2CN3CCC2CC3)c(C)c1` (stereo partly drawn) [Example 180, (S)-quinuclidin-3-yl (5-(4-methoxy-2-methylphenyl)-2,2-dimethyl-2,3-dihydro-1H-inden-1-yl)carbamate]: the IC50 (in general, the concentration needed to halve the response being measured) is 28.1 nM.
As to `CC(C)(C)OCc1ccc(-c2ccc3c(c2)CC(C)(C)C3NC(=O)O[C@@H]2CN3CCC2CC3)cc1` (stereo partly drawn) [Example 181, (S)-quinuclidin-3-yl (5-(4-(tert-butoxymethyl)phenyl)-2,2-dimethyl-2,3-dihydro-1H-inden-1-yl)carbamate], the IC50 was found to be 5.5 nM.
Compound `CC1(C)Cc2cc(-c3cccc(C(F)(F)F)c3Cl)ccc2C1NC(=O)O[C@@H]1CN2CCC1CC2` (stereo partly drawn) [Example 182, (S)-quinuclidin-3-yl (5-(2-chloro-3-(trifluoromethyl)phenyl)-2,2-dimethyl-2,3-dihydro-1H-inden-1-yl)carbamate] gave an IC50 of 20.9 nM.
Regarding `CC1(C)Cc2cc(-c3ccc(C(F)(F)F)cc3Cl)ccc2C1NC(=O)O[C@@H]1CN2CCC1CC2` (stereo partly drawn) [Example 183, (S)-quinuclidin-3-yl (5-(2-chloro-4-(trifluoromethyl)phenyl)-2,2-dimethyl-2,3-dihydro-1H-inden-1-yl)carbamate], 18.6 nM corresponded to half-maximal inhibition (IC50).
Next, `COc1ccc(-c2ccc3c(c2)CC(C)(C)C3NC(=O)O[C@@H]2CN3CCC2CC3)c(OC)n1` (stereo partly drawn) [Example 184, (S)-quinuclidin-3-yl (5-(2,6-dimethoxypyridin-3-yl)-2,2-dimethyl-2,3-dihydro-1H-inden-1-yl)carbamate]: 40 nM.
`CC1(C)Cc2cc(-c3ccc(OCC4CC4)nc3)ccc2C1NC(=O)O[C@@H]1CN2CCC1CC2` (stereo partly drawn) [Example 185, (S)-quinuclidin-3-yl (5-(6-(cyclopropylmethoxy)pyridin-3-yl)-2,2-dimethyl-2,3-dihydro-1H-inden-1-yl)carbamate] showed an IC50 of 11.1 nM.
The compound `CC1(C)Cc2cc(-c3cc4ccccc4s3)ccc2C1NC(=O)O[C@@H]1CN2CCC1CC2` (stereo partly drawn) [Example 186, (S)-quinuclidin-3-yl (5-(benzo[b]thiophen-2-yl)-2,2-dimethyl-2,3-dihydro-1H-inden-1-yl)carbamate] registered an IC50 of 82.6 nM.
`CC(C)(C)Oc1cc(-c2ccc3c(c2)CC(C)(C)C3NC(=O)O[C@@H]2CN3CCC2CC3)ccn1` (stereo partly drawn) [Example 187, (S)-quinuclidin-3-yl (5-(2-(tert-butoxy)pyridin-4-yl)-2,2-dimethyl-2,3-dihydro-1H-inden-1-yl)carbamate] yielded an IC50 of 31.7 nM.
In turn, `COc1ncc(-c2ccc3c(c2)CC(C)(C)C3NC(=O)O[C@@H]2CN3CCC2CC3)cc1C(F)(F)F` (stereo partly drawn) [Example 188, (S)-quinuclidin-3-yl (5-(6-methoxy-5-(trifluoromethyl)pyridin-3-yl)-2,2-dimethyl-2,3-dihydro-1H-inden-1-yl)carbamate] came in with an IC50 of 46.2 nM.
The compound `COc1ccc2cc(-c3ccc4c(c3)CC(C)(C)C4NC(=O)O[C@@H]3CN4CCC3CC4)ccc2c1` (stereo partly drawn) [Example 189, (S)-quinuclidin-3-yl (5-(6-methoxynaphthalen-2-yl)-2,2-dimethyl-2,3-dihydro-1H-inden-1-yl)carbamate] registered an IC50 of 23 nM.
`CC1(C)Cc2cc(-c3cccc(-c4ccccc4)c3)ccc2C1NC(=O)O[C@@H]1CN2CCC1CC2` (stereo partly drawn) [Example 190, (S)-quinuclidin-3-yl (5-([1,1′-biphenyl]-3-yl)-2,2-dimethyl-2,3-dihydro-1H-inden-1-yl)carbamate] had an IC50 of 13.3 nM.
`CC1(C)Cc2cc(-c3ccc4nccnc4c3)ccc2C1NC(=O)O[C@@H]1CN2CCC1CC2` (stereo partly drawn) [Example 191, (S)-quinuclidin-3-yl (2,2-dimethyl-5-(quinoxalin-6-yl)-2,3-dihydro-1H-inden-1-yl)carbamate] had a 50% inhibitory concentration (IC50) of 123 nM.
The result for `Cc1cc(C)cc(-c2ccc3c(c2)CC(C)(C)C3NC(=O)O[C@@H]2CN3CCC2CC3)c1` (stereo partly drawn) [Example 192, (S)-quinuclidin-3-yl (5-(3,5-dimethylphenyl)-2,2-dimethyl-2,3-dihydro-1H-inden-1-yl)carbamate] reads 25.8 nM.
The compound `CC1(C)Cc2cc(-c3ccco3)ccc2C1NC(=O)O[C@@H]1CN2CCC1CC2` (stereo partly drawn) [Example 193, (S)-quinuclidin-3-yl (5-(furan-2-yl)-2,2-dimethyl-2,3-dihydro-1H-inden-1-yl)carbamate] gave an IC50 of 15.3 nM.
`Cc1cc(-c2ccc3c(c2)CC(C)(C)C3NC(=O)O[C@@H]2CN3CCC2CC3)cc(C)c1OC(C)C` (stereo partly drawn) [Example 194, (S)-quinuclidin-3-yl (5-(4-isopropoxy-3,5-dimethylphenyl)-2,2-dimethyl-2,3-dihydro-1H-inden-1-yl)carbamate] registered an IC50 of 47.6 nM.
The compound `COc1c(C)cc(-c2ccc3c(c2)CC(C)(C)C3NC(=O)O[C@@H]2CN3CCC2CC3)cc1C` (stereo partly drawn) [Example 195, (S)-quinuclidin-3-yl (5-(4-methoxy-3,5-dimethylphenyl)-2,2-dimethyl-2,3-dihydro-1H-inden-1-yl)carbamate] had an IC50 of 36.1 nM.
`CC(C)Oc1ccc(-c2ccc3c(c2)CC(C)(C)C3NC(=O)O[C@@H]2CN3CCC2CC3)cn1` (stereo partly drawn) [Example 196, (S)-quinuclidin-3-yl (5-(6-isopropoxypyridin-3-yl)-2,2-dimethyl-2,3-dihydro-1H-inden-1-yl)carbamate] came in with an IC50 of 23.2 nM.
Regarding `CC1(C)Cc2cc(-c3cccc(OCCF)c3)ccc2C1NC(=O)O[C@@H]1CN2CCC1CC2` (stereo partly drawn) [Example 197, (S)-quinuclidin-3-yl (5-(3-(2-fluoroethoxy)phenyl)-2,2-dimethyl-2,3-dihydro-1H-inden-1-yl)carbamate], inhibition was half-maximal at 8.7 nM (IC50).
In turn, `CCOc1ccc(C)cc1-c1ccc2c(c1)CC(C)(C)C2NC(=O)O[C@@H]1CN2CCC1CC2` (stereo partly drawn) [Example 198, (S)-quinuclidin-3-yl (5-(2-ethoxy-5-methylphenyl)-2,2-dimethyl-2,3-dihydro-1H-inden-1-yl)carbamate] displayed a half-inhibitory concentration (IC50) of 11.7 nM.
Next, `CCCOc1cccc(-c2ccc3c(c2)CC(C)(C)C3NC(=O)O[C@@H]2CN3CCC2CC3)c1` (stereo partly drawn) [Example 199, (S)-quinuclidin-3-yl (2,2-dimethyl-5-(3-propoxyphenyl)-2,3-dihydro-1H-inden-1-yl)carbamate]: 5.5 nM.
The result for `COc1ccc(C)cc1-c1ccc2c(c1)CC(C)(C)C2NC(=O)O[C@@H]1CN2CCC1CC2` (stereo partly drawn) [Example 200, (S)-quinuclidin-3-yl (5-(2-methoxy-5-methylphenyl)-2,2-dimethyl-2,3-dihydro-1H-inden-1-yl)carbamate] reads 3.7 nM; that for `CCCCOc1ccc(F)cc1-c1ccc2c(c1)CC(C)(C)C2NC(=O)O[C@@H]1CN2CCC1CC2` (stereo partly drawn) [Example 201, (S)-quinuclidin-3-yl (5-(2-butoxy-5-fluorophenyl)-2,2-dimethyl-2,3-dihydro-1H-inden-1-yl)carbamate], 38.2 nM.
The result for `CCCCOc1ccc(-c2ccc3c(c2)CC(C)(C)C3NC(=O)O[C@@H]2CN3CCC2CC3)cc1Cl` (stereo partly drawn) [Example 202, (S)-quinuclidin-3-yl (5-(4-butoxy-3-chlorophenyl)-2,2-dimethyl-2,3-dihydro-1H-inden-1-yl)carbamate] reads 26.3 nM; that for `CCCOc1ccc(-c2ccc3c(c2)CC(C)(C)C3NC(=O)O[C@@H]2CN3CCC2CC3)c(OCCC)c1` (stereo partly drawn) [Example 203, (S)-quinuclidin-3-yl (5-(2,4-dipropoxyphenyl)-2,2-dimethyl-2,3-dihydro-1H-inden-1-yl)carbamate], 8.2 nM.
The compound `CCOc1ccc(-c2ccc3c(c2)CC(C)(C)C3NC(=O)O[C@@H]2CN3CCC2CC3)cc1Cl` (stereo partly drawn) [Example 204, (S)-quinuclidin-3-yl (5-(3-chloro-4-ethoxyphenyl)-2,2-dimethyl-2,3-dihydro-1H-inden-1-yl)carbamate] had an IC50 of 57.2 nM.
Turning to `CC(C)COc1cccc(-c2ccc3c(c2)CC(C)(C)C3NC(=O)O[C@@H]2CN3CCC2CC3)c1` (stereo partly drawn) [Example 205, (S)-quinuclidin-3-yl (5-(3-isobutoxyphenyl)-2,2-dimethyl-2,3-dihydro-1H-inden-1-yl)carbamate], the concentration for half-maximal inhibition (IC50) came out at 7.6 nM.
`CCOc1ccc(-c2ccc3c(c2)CC(C)(C)C3NC(=O)O[C@@H]2CN3CCC2CC3)c(C)c1` (stereo partly drawn) [Example 206, (S)-quinuclidin-3-yl (5-(4-ethoxy-2-methylphenyl)-2,2-dimethyl-2,3-dihydro-1H-inden-1-yl)carbamate]: the IC50 was 14 nM.
Next, `CCCOc1ccc(-c2ccc3c(c2)CC(C)(C)C3NC(=O)O[C@@H]2CN3CCC2CC3)cc1Cl` (stereo partly drawn) [Example 207, (S)-quinuclidin-3-yl (5-(3-chloro-4-propoxyphenyl)-2,2-dimethyl-2,3-dihydro-1H-inden-1-yl)carbamate]: 58.6 nM; `CC(C)Oc1ccc(F)cc1-c1ccc2c(c1)CC(C)(C)C2NC(=O)O[C@@H]1CN2CCC1CC2` (stereo partly drawn) [Example 208, (S)-quinuclidin-3-yl (5-(5-fluoro-2-isopropoxyphenyl)-2,2-dimethyl-2,3-dihydro-1H-inden-1-yl)carbamate]: 67.4 nM; `CC(C)Oc1ccc(-c2ccc3c(c2)CC(C)(C)C3NC(=O)O[C@@H]2CN3CCC2CC3)cc1F` (stereo partly drawn) [Example 209, (S)-quinuclidin-3-yl (5-(3-fluoro-4-isopropoxyphenyl)-2,2-dimethyl-2,3-dihydro-1H-inden-1-yl)carbamate]: 32.1 nM.

The values are drawn from patent publication US12522602B2, “Derivatives having 2,3-dihydro-1H-indene or 2,3-dihydrobenzofuran moiety or pharmaceutically acceptable salt thereof and pharmaceutical compositions comprising the same” (YUHAN CORPORATION, priority 2019, dated 2026).
